These are literature values, as cited in patent US20250151766A1, “SWEETENED COMPOSITION AND PREPARATION METHOD AND USE THEREOF” (GUILIN LAYN NATURAL INGREDIENTS CORP., priority 2022, published 2025).

The conditions of this data set: general statement in the description.

In the case of `O=C(CO)[C@@H](O)[C@H](O)[C@H](O)CO` [fructose], the sweetness was 1.5 ×.
